# “Also recorded” adds a separate entry of the source.
# Columns and labels:
# [1] = system: pulmonary arterial hypertension (PAH) model; assay: Monocrotaline pulmonary arterial hypertension (PAH) model, BC-KI-00053; assay type: in vivo, SD rats
# Experimental: In order to induce PAH in 6-week-old female SD rats (Oriental Bio), 60 mg/kg of MCT (monocrotaline), a substance that causes pulmonary hypertension through pulmonary arterial injury, was injected subcutaneously. Then animals were divided into four groups (5 animals per group), and orally administered with vehicle, sildenafil (25 mg/kg, once daily) or BC-KI-00053 (25 or 50 mg/kg, dissolved in vehicle, once daily) for 3 weeks. Vehicle was corn oil:polyethylene glycol 400:Tween 80:methyl cellulose (1%)=20:30:1:49.
# Three weeks later, rats were anesthetized with isoflurane, and blood flow and pressure were measured using an MPVS cardiovascular pressure and volume system (model name: MPVS Ultra, manufactured by Millar Instruments). Right ventricular systolic pressure (RVESP) and diastolic pressure, left ventricular systolic pressure and diastolic pressure were measured using a dedicated catheter (Mikro-Tip rat pressure catheter, manufactured by Millar Instruments). Cardiac output was measured using a perivascular blood flow probe (Transonic® Flowprobes, manufactured by […]), and experimental techniques were performed in the same manner as described in the literature: Pacher P, Nagayama T, Mukhopadhyay P, Batkai S, Kass D A. Measurement of cardiac function using pressure-volume conductance catheter technique in mice and rats. Nat Protoc 2008, 3(9):1422-34.
# IHC staining for CD68, a monocyte/macrophage marker, was performed using lung tissues from each experimental group. Collected lungs were fixed in PFA (paraformaldehyde) according to the conventional procedure, and then embedded in paraffin through water washing, dehydration, and tissue clearing processes. Lung tissue paraffin blocks of rats were cut to a thickness of […] and slides were prepared. Thereafter, staining was performed as follows. First, three times for 5 minutes xylene treatment, 2 minutes in 100% ethanol twice, 95% ethanol, 90% ethanol, 70% ethanol, DW treatment for 2 minutes in this order and washed with PBS for 5 minutes (2 times). After treatment with 0.3% H2O2 (10 minutes), slides were washed twice with PBS for 5 minutes. Then slides were soaked in 0.01M citrate buffer of pH 6.0 and microwaved for 3 minutes and 30 seconds, then antigen retrieval of cooling for 10 seconds and reheating for 10 seconds was repeated for 10 minutes followed by 20 minutes of cooling at room temperature. Afterwards, slides were washed three times for 5 minutes with PBS-T (0.03% Triton-X). After 30 minutes blocking (2% BSA & 2% goat serum in PBS) at 4° C. anti-CD68 antibody (1:200, Abcam, ab31630) was treated overnight at 4° C. After washing three times with PBS-T for 5 minutes, slides were treated with polymer-HRP anti-mouse envision kit (DAKO) for 1 hour at 4° C. After washing 3 times with PBS-T for 5 minutes, 1 ml of DAB substrate buffer and 20 ul of DAB chromogen were mixed and treated with tissue. After 10 minutes when colors developed, slides were washed twice with tertiary distilled water. Stained tissues were treated with Mayer's hematoxylin (Sigma) for 1 minute, and then treated in the order of 70% ethanol, 90% ethanol, 95% ethanol, and 100% ethanol, twice for 2 minutes for each solution. Finally, after three times of xylene treatment for 5 minutes, cover slides were mounted using a mounting solution, and observed with an optical microscope.
# RAW 264.7 cells = assay: Transwell migration assay of monocytes/macrophages; assay type: cell-based; conditions: laminin 421 1 μg/ml, 30 nM-3 μM, 24 hours, concentration-dependent
# Experimental: Among several extracellular matrix (ECM), it was examined which ECM promotes the migration and infiltration of immune cells, typically monocytes/macrophages. A transwell migration assay was performed using collagen (Col), fibronectin (FN) and laminin (LN) as extracellular matrices, and detailed methods were as follows. Transwells (Corning, #3421-5 mm) were coated with gelatin (0.5 mg/ml) and RAW 264.7 cells (1×10^5 cells/well) were seeded into the top chambers. Serum free DMEM (500 μl) containing 10 μg/ml of laminin (laminin mixture, Biolamina), fibronectin or collagen, respectively, was placed in the bottom chambers. After 24 hours, cells were fixed with 70% methanol for 30 minutes and stained with 50% hematoxylin for 30 minutes. After removing non-migrating cells from the top of the membrane with a cotton swab, the membrane was taken and mounted on the slide. Migrating cells on the underside of the membrane were observed and quantified under a high magnification microscope.
# Effect of laminin subtypes on the immune cell migration and infiltration was evaluated. A transwell migration assay was performed in the same manner as in Example 1 using LN111, LN211, LN221, LN411, LN421, LN511, and LN521 as various laminin subtype proteins (purchased from Biolamina). Specific sequences of laminin subtypes are referred to α4 chain of SEQ ID NO:4, α2 chain of SEQ ID NO: 10, α5 chain of SEQ ID NO: 11, β2 chain of SEQ ID NO:6, β1 chain of SEQ ID NO: 12, γ1 chain of SEQ ID NO: 8. according to the chain forming each laminin subtype,
# For each of the transformed macrophages, a transwell migration assay was performed in the same manner as in Example 1 using 1 μg/ml of laminin 421.
# Thus identified agents as inhibiting the translocation of KRS to the plasma membrane was added to the LN421-treated macrophages to perform a transwell migration assay. […] Migrating cells on the underside of the membrane were observed and quantified under a high magnification microscope. […]
# [2] = 25 or 50 mg/kg oral once daily 3 weeks
compound,measurement,setting,value
"COc1ccc(CCN(Cc2ccc(C(=O)O)cc2)c2nc3cccc(F)c3s2)cc1 [BC-KI-00053, 4-({(7-fluorobenzo[d]thiazol-2-yl)[2-(4-methoxyphenyl)ethyl]amino}methyl)benzoic acid]",left ventricular end systolic pressure (LVESP),"[1]; 50 mg/kg, not statistically significant",increased
same,left ventricular end systolic pressure (LVESP),[1]; [2],no decrease
same,lung tissue infiltration of monocytes/macrophages (CD68 IHC),[1]; [2],clearly reduced
same,RVESP (right ventricular systolic pressure),"[1]; 25 or 50 mg/kg oral once daily 3 weeks, concentration dependent",significantly reduced
same,reduction of lung monocyte/macrophage infiltration compared with sildenafil,[1]; CD68 IHC,noticeably superior to sildenafil
same,tendency to affect systemic artery pressure compared with sildenafil,"[1]; rat, in vivo",lower tendency
same,LN421-specific monocyte/macrophage migration,RAW 264.7 cells,noticeably suppressed; also recorded: significantly inhibited

# From patent US11378572B2, “Therapeutic agent for immune cell migration-caused disease and method for screening same” (ZYMEDI CO., LTD., priority 2017, dated 2022)
